Target: human OX2R (Homo sapiens (Human), UniProt O43614)
Test: IPOne (IP-1) assay in CHO cells expressing human OX2R
Type: cell-based
Conditions: for Emax: CHO, read-out: Emax (%); for IC50: CHO cells expressing human OX2R, IP-One detection, 2 hours incubation, EC50 = inflection point of four parameter logistic fit, read-out: hOX2R_IP_IC50
Procedure, shortened: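 CHO cells stably expressing human OX2R were stimulated with compound (10-point ½-log dilutions) for 2 h at 37 °C. IP-1 accumulation was read by HTRF (IP-One, 665/620 nm). EC50 from a four-parameter fit; % effect relative to 1 μM reference agonist control.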

[1] = percentage of mean max effect of a reference compound at 1 uM (100% activity by comparison to Orexin A), human OX2R

Sequence of human OX2R (O43614 whole entry): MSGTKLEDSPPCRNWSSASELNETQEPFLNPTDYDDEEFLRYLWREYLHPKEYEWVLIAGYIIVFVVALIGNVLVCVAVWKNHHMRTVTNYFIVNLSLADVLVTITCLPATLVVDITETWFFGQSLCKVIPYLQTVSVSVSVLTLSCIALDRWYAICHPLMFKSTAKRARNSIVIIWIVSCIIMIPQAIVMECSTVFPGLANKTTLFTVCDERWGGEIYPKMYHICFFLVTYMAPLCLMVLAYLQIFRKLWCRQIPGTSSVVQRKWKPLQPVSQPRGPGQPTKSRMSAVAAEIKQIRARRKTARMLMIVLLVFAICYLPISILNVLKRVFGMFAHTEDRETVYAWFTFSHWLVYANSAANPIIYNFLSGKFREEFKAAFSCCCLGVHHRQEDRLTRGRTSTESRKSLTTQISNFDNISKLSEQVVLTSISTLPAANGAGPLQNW

Compound | Emax [1] [%] | IC50 [nM] | Emax (%) [1] [%]
COC(=O)N1[C@H](C)C[C@H](NS(C)(=O)=O)[C@@H]1COC1CCC2(c3ncc(OC(F)F)c(C)n3)CC2C1 (stereo partly drawn) [Example 75, methyl (2R,3S,5R)-2-(((6-(5-(difluoromethoxy)-4-methylpyrimidin-2-yl)bicyclo[4.1.0]heptan-3-yl)oxy)methyl)-5-methyl-3-(methylsulfonamido)pyrrolidine-1-carboxylate] | 89.5 | – | –
COC(=O)N1[C@H](C)C[C@H](NS(C)(=O)=O)[C@@H]1COC1CCC2(c3ncc(F)c(OC)n3)CC2C1 (stereo partly drawn) [Example 76, methyl (2R,3S,5R)-2-(((6-(5-fluoro-4-methoxypyrimidin-2-yl)bicyclo[4.1.0]heptan-3-yl)oxy)methyl)-5-methyl-3-(methylsulfonamido)pyrrolidine-1-carboxylate] | 101 | – | –
COC(=O)N1[C@H](C)C[C@H](NS(C)(=O)=O)[C@@H]1COC1CCC2(c3ncc(F)c(C)n3)CC2C1 (stereo partly drawn) [Example 77, methyl (2R,3S,5R)-2-(((6-(5-fluoro-4-methylpyrimidin-2-yl)bicyclo[4.1.0]heptan-3-yl)oxy)methyl)-5-methyl-3-(methylsulfonamido)pyrrolidine-1-carboxylate] | 74.5 | – | –
COC(=O)N1[C@H](C)C[C@H](NS(=O)(=O)C(F)F)[C@@H]1CO[C@H]1CC[C@@]2(c3ncc(Cl)cn3)C[C@H]2C1 [Example 78, methyl (2R,3S,5R)-2-((((1S,3S,6R)-6-(5-chloropyrimidin-2-yl)bicyclo[4.1.0]heptan-3-yl)oxy)methyl)-3-((difluoromethyl)sulfonamido)-5-methylpyrrolidine-1-carboxylate] | 101 | – | –
COC(=O)N1[C@H](C)C[C@H](NS(=O)(=O)CF)[C@@H]1CO[C@H]1CC[C@@]2(c3ncc(Cl)cn3)C[C@H]2C1 [Example 79, methyl (2R,3S,5R)-2-((((1S,3S,6R)-6-(5-chloropyrimidin-2-yl)bicyclo[4.1.0]heptan-3-yl)oxy)methyl)-3-((fluoromethyl)sulfonamido)-5-methylpyrrolidine-1-carboxylate] | 103 | 0.86 | –
CC(C)OC(=O)N1[C@H](C)C[C@H](NS(=O)(=O)C(F)F)[C@@H]1COC1CCC2(c3ncc(Cl)cn3)CC2C1 (stereo partly drawn) [Example 82, isopropyl (2R,3S,5R)-2-(((6-(5-chloropyrimidin-2-yl)bicyclo[4.1.0]heptan-3-yl)oxy)methyl)-3-((difluoromethyl)sulfonamido)-5-methylpyrrolidine-1-carboxylate] | 102 | – | –
COC(=O)N1[C@H](C)C[C@H](NS(=O)(=O)CF)[C@@H]1CO[C@H]1CC[C@@]2(c3ncc(F)c(OC)n3)C[C@H]2C1 [Example 83, methyl (2R,3S,5R)-2-((((1S,3S,6R)-6-(5-fluoro-4-methoxypyrimidin-2-yl)bicyclo[4.1.0]heptan-3-yl)oxy)methyl)-3-((fluoromethyl)sulfonamido)-5-methylpyrrolidine-1-carboxylate] | 100 | 7.6 | –
COC(=O)N1[C@H](C)C[C@H](NS(=O)(=O)CF)[C@@H]1COC1CCC2(c3ncc(F)c(OC)n3)CC2C1 (stereo partly drawn) [Example 85, methyl (2R,3S,5R)-2-(((6-(5-fluoro-4-methoxypyrimidin-2-yl)bicyclo[4.1.0]heptan-3-yl)oxy)methyl)-3-((fluoromethyl)sulfonamido)-5-methylpyrrolidine-1-carboxylate] | 97.1 | – | –
COC(=O)N1[C@H](C)C[C@H](NS(=O)(=O)CF)[C@@H]1COC1CCC2(c3ncc(Cl)c(OC)n3)CC2C1 (stereo partly drawn) [Example 86, methyl (2R,3S,5R)-2-(((6-(5-chloro-4-methoxypyrimidin-2-yl)bicyclo[4.1.0]heptan-3-yl)oxy)methyl)-3-((fluoromethyl)sulfonamido)-5-methylpyrrolidine-1-carboxylate] | 101 | – | –
COC(=O)N1[C@H](C)C[C@H](NS(=O)(=O)CF)[C@@H]1COC1CCC2(c3ncc(Br)cn3)CC2C1 (stereo partly drawn) [Example 89, methyl (2R,3S,5R)-2-(((6-(5-bromopyrimidin-2-yl)bicyclo[4.1.0]heptan-3-yl)oxy)methyl)-3-((fluoromethyl)sulfonamido)-5-methylpyrrolidine-1-carboxylate] | 104 | – | –
COC(=O)N1[C@H](C)C[C@H](NS(=O)(=O)CF)[C@@H]1COC1CCC2(c3ncc(Cl)cn3)CC2C1 (stereo partly drawn) [Example 94, methyl (2R,3S,5R)-2-(((6-(5-chloropyrimidin-2-yl)bicyclo[4.1.0]heptan-3-yl)oxy)methyl)-3-((fluoromethyl)sulfonamido)-5-methylpyrrolidine-1-carboxylate] | 102 | – | –
CC(C)OC(=O)N1[C@H](C)C[C@H](NS(=O)(=O)CF)[C@@H]1COC1CCC2(c3ncc(Cl)cn3)CC2C1 (stereo partly drawn) [Example 107, isopropyl (2R,3S,5R)-2-(((6-(5-chloropyrimidin-2-yl)bicyclo[4.1.0]heptan-3-yl)oxy)methyl)-3-((fluoromethyl)sulfonamido)-5-methylpyrrolidine-1-carboxylate] | 104 | – | –
CC(C)OC(=O)N1[C@H](C)C[C@H](NS(=O)(=O)CF)[C@@H]1COC1CCC2(c3ncc(Br)cn3)CC2C1 (stereo partly drawn) [Example 108, isopropyl (2R,3S,5R)-2-(((6-(5-bromopyrimidin-2-yl)bicyclo[4.1.0]heptan-3-yl)oxy)methyl)-3-((fluoromethyl)sulfonamido)-5-methylpyrrolidine-1-carboxylate] | 105 | – | –
CC(C)OC(=O)N1[C@H](C)C[C@H](NS(=O)(=O)C(F)F)[C@@H]1COC1CCC2(c3ncc(F)cn3)CC2C1 (stereo partly drawn) [Example 109, isopropyl (2R,3S,5R)-3-((difluoromethyl)sulfonamido)-2-(((6-(5-fluoropyrimidin-2-yl)bicyclo[4.1.0]heptan-3-yl)oxy)methyl)-5-methylpyrrolidine-1-carboxylate] | 105 | – | –
CC(C)OC(=O)N1[C@H](C)C[C@H](NS(=O)(=O)C(F)F)[C@@H]1COC1CC[C@]2(c3ncc(F)cn3)CC2C1 (stereo partly drawn) [Example 110] | – | – | 100.9
CC(C)OC(=O)N1[C@H](C)C[C@H](NS(=O)(=O)CF)[C@@H]1COC1CCC2(c3ncc(F)cn3)CC2C1 (stereo partly drawn) [Example 111, isopropyl (2R,3S,5R)-3-((fluoromethyl)sulfonamido)-2-(((6-(5-fluoropyrimidin-2-yl)bicyclo[4.1.0]heptan-3-yl)oxy)methyl)-5-methylpyrrolidine-1-carboxylate] | 98.5 | – | –
COC(=O)N1[C@H](C(F)F)C[C@H](NS(=O)(=O)C2CC2)[C@@H]1COC1CCC2(c3ncc(F)cn3)CC2C1 (stereo partly drawn) [Example 116, methyl (2R,3S,5S)-3-(cyclopropanesulfonamido)-5-(difluoromethyl)-2-(((6-(5-fluoropyrimidin-2-yl)bicyclo[4.1.0]heptan-3-yl)oxy)methyl)pyrrolidine-1-carboxylate] | 102 | – | –
CCS(=O)(=O)N[C@H]1C[C@@H](C(F)F)N(C(=O)OC)[C@H]1COC1CCC2(c3ncc(F)cn3)CC2C1 (stereo partly drawn) [Example 117, methyl (2R,3S,5S)-5-(difluoromethyl)-3-(ethylsulfonamido)-2-(((6-(5-fluoropyrimidin-2-yl)bicyclo[4.1.0]heptan-3-yl)oxy)methyl)pyrrolidine-1-carboxylate] | 101 | – | –
CC(C)OC(=O)N1[C@H](C(F)F)C[C@H](NS(C)(=O)=O)[C@@H]1CO[C@H]1CC[C@@]2(c3ncc(F)cn3)C[C@H]2C1 [Example 119, isopropyl (2R,3S,5S)-5-(difluoromethyl)-2-((((1S,3S,6R)-6-(5-fluoropyrimidin-2-yl)bicyclo[4.1.0]heptan-3-yl)oxy)methyl)-3-(methylsulfonamido)pyrrolidine-1-carboxylate] | 100 | – | –
COC(=O)N1[C@H](C(F)F)C[C@H](NS(=O)(=O)C(C)C)[C@@H]1COC1CCC2(c3ncc(F)cn3)CC2C1 (stereo partly drawn) [Example 120, methyl (2R,3S,5S)-5-(difluoromethyl)-2-(((6-(5-fluoropyrimidin-2-yl)bicyclo[4.1.0]heptan-3-yl)oxy)methyl)-3-((1-methylethyl)sulfonamido)pyrrolidine-1-carboxylate] | 102 | – | –
CC(C)OC(=O)N1CCC[C@H](NS(=O)(=O)C(F)F)[C@@H]1CO[C@H]1CC[C@@]2(c3ncc(F)cn3)C[C@H]2C1 [Example 121, isopropyl (2R,3S)-3-((difluoromethyl)sulfonamido)-2-((((1S,3S,6R)-6-(5-fluoropyrimidin-2-yl)bicyclo[4.1.0]heptan-3-yl)oxy)methyl)piperidine-1-carboxylate] | 108 | – | –
CC(C)OC(=O)N1CCC[C@H](NS(=O)(=O)C2CC2)[C@@H]1COC1CCC2(c3ncc(F)cn3)CC2C1 (stereo partly drawn) [Example 122, isopropyl (2R,3S)-3-(cyclopropanesulfonamido)-2-(((6-(5-fluoropyrimidin-2-yl)bicyclo[4.1.0]heptan-3-yl)oxy)methyl)piperidine-1-carboxylate] | 104 | – | –
CC(C)OC(=O)N1CCC[C@H](NS(=O)(=O)C(F)(F)F)[C@@H]1COC1CC[C@@]2(c3ncc(F)cn3)CC2C1 (stereo partly drawn) [Example 123, isopropyl (2R,3S)-2-(((6-(5-fluoropyrimidin-2-yl)bicyclo[4.1.0]heptan-3-yl)oxy)methyl)-3-((trifluoromethyl)sulfonamido)piperidine-1-carboxylate] | 102 | – | –
CCS(=O)(=O)N[C@H]1CCCN(C(=O)OC(C)C)[C@H]1COC1CC[C@@]2(c3ncc(F)cn3)CC2C1 (stereo partly drawn) [Example 126, isopropyl (2R,3S)-3-(ethylsulfonamido)-2-(((6-(5-fluoropyrimidin-2-yl)bicyclo[4.1.0]heptan-3-yl)oxy)methyl)piperidine-1-carboxylate] | 104 | – | –
COC(=O)N1[C@@H]2CCC[C@@H]2[C@H](NS(=O)(=O)C2CC2)[C@@H]1COC1CCC2(c3ncc(F)cn3)CC2C1 (stereo partly drawn) [Example 128, methyl (2R,3S,3aS,6aR)-3-(cyclopropanesulfonamido)-2-(((6-(5-fluoropyrimidin-2-yl)bicyclo[4.1.0]heptan-3-yl)oxy)methyl)hexahydrocyclopenta[b]pyrrole-1(2H)-carboxylate] | 100 | – | –

Reference: US11680060B2, “Bicycloheptane pyrrolidine orexin receptor agonists” (Merck Sharp & Dohme LLC, priority 2020, dated 2023)
